Laboratory results: patent publication EP2050748A1, “Novel fused pyrimidines” (Bayer Schering Pharma Aktiengesellschaft, priority 2007, dated 2009)

tested on: phosphorylated GSK3 (Ser9); assay: Cellular pGSK3 assay (phospho-GSK3 ELISA); type: cell-based; conditions: Homo sapiens, MCF7 cells, compound incubated 48h
Experimental: In order to study the cellular activity of the compounds according to the present invention, an ELISA-based assay has been established for the phosphorylated protein glycogen synthetase kinase 3 (GSK3). The assay is based on a solid phase sandwich ELISA that detects endogenous levels of phosphorylated GSK3 using a phospho-GSK3 (Ser9) specific antibody (BioSource International, Inc.; Catalog #KHO0461). After incubation with cell lysates, the coated antibody captures the phosphorylated GSK3 protein. Following extensive washing, GSK3 polyclonal antibody is added to detect the captured phospho-GSK3 protein. Secondary antibody (anti-rabbit IgG-HRP) is then used to recognize the bound detection antibody. After the second incubation and washing to remove all the excess anti-rabbit IgG-HRP, a substrate solution is added, which is acted upon by the bound enzyme to produce color. The intensity of this colored product is directly proportional to the concentration of GSK-3β [pS9] present in the original specimen. MCF7 cells (ATCC HTB-22) were seeded into 96 well fate bottom plates at a density of 10000 cells/well. After 24 h 1 µl each of the compound dilutions (test compounds were dissolved as 10 mM solutions in dimethylsulfoxide (DMSO) and subsequently diluted) were added into each well of the 96 well plates and incubated for 48h at 37°C in a humidified athmosphere containing 5% CO2. Cells were harvested and lysed in cell extraction buffer (10 mM Tris, pH 7.4, 100 mM NaCl, 1 mM EDTA, 1 mM EGTA, 1 mM NaF, 20 mM Na4P2O7, 2 mM Na3VO4, 1% Triton X-100, 10vol% glycerol, 0.1vol% SDS, 0.5vol% deoxycholate, 1 mM phenylmethylsulfonylfluorid (PMSF)). The lysate were centrifuged for 10 min. at 4°C and the supernatant were transferred to a new tube. 50 µl of sample diluent (standard diluent buffer, Biosource) were added and 100 µl of cell lysate transferred into the tube and vortexed. 100 µl of each diluted cell lysate were added to the appropriate ELISA well plate and incubated for 3h at room temperature. The plates were washed 4 times with 1x wash buffer (Biosource). 50 µl of detection antibody (GSK3 (Ser9) detection antibody; BioSource) were added to each well and incubated for 30 min. at room temperature. The washing procedure was repeated between each step. 100µl of HRP-linked secondary antibody (anti-mouse IgG HRP-linked antibody) were added to each well and incubated for 30 min. at room temperature. 100µl of TMB substrate (0.05vol% 3,3',5,5' tetramethylbenzidine, 0.1vol% hydrogen peroxide, complex polypeptides in a buffered solution; Biosource) were added to each well and incubated for 30 min. at room temperature. Finally 100 µl of Stop solution (0.05vol% α and β unsaturated carbonyl compound) were added to each well and the plate were shaked gently for a few seconds. The absorbance was measured at λ = 450 nm (Wallac Victor2; Perkin Elmer, USA) within 30 min. after adding the stop solution. The analysis of the data was performed using a statistical program (Excel; Microsoft, USA) and the IC50 of pGSK3 inhibition was determined.

Structure (SMILES) | IC50
c1ccc(-c2cn3ccnc3nc2-c2ccc(CN3CCC(c4nc(-c5ccccn5)n[nH]4)CC3)cc2)cc1 [Example 1, 6-phenyl-7-(4-{[4-(3-pyridin-2-yl-1,2,4-triazol-5-yl)piperidin-1-yl]methyl}phenyl)imidazo[1,2-a]pyrimidine] | < 1000 nM
c1ccc(-c2cn3ccnc3nc2-c2ccc(CN3CCC(c4cc(-c5ccccn5)n[nH]4)CC3)cc2)cc1 [Example 5, 6-phenyl-7-(4-{[4-(3-pyridin-2-yl-pyrazol-5-yl)piperidin-1-yl]methyl}phenyl)imidazo[1,2-a]pyrimidine] | 1000 to 10000 nM
c1ccc(-c2cn3ccnc3nc2-c2ccc(CN3CCC(c4n[nH]c(-c5ccncc5)n4)CC3)cc2)cc1 [Example 6, 6-phenyl-7-(4-{[4-(5-pyridin-4-yl-1,2,4-triazol-3-yl)piperidin-1-yl]methyl}phenyl)imidazo[1,2-a]pyrimidine] | 1000 to 10000 nM
N#Cc1cnc2nc(-c3ccc(CN4CCC(c5n[nH]c(-c6ccccn6)n5)CC4)cc3)c(-c3ccccc3)cn12 [Example 8, 6-phenyl-7-(4-{[4-(5-pyridin-2-yl-1,2,4-triazol-3-yl)piperidin-1-yl]methyl}phenyl)imidazo[1,2-a]pyrimidine-3-carbonitrile] | 1000 to 10000 nM
Fc1cnc2nc(-c3ccc(CN4CCC(c5n[nH]c(-c6ccccn6)n5)CC4)cc3)c(-c3ccccc3)cn12 [Example 9, 3-fluoro-6-phenyl-7-(4-{[4-(5-pyridin-2-yl-1H-1,2,4-triazol-3-yl)piperidin-1-yl]methyl}phenyl)imidazo[1,2-a]pyrimidine] | 1000 to 10000 nM
CNc1c(-c2ccccc2)c(-c2ccc(CN3CCC(c4n[nH]c(-c5ccccn5)n4)CC3)cc2)nc2nccn12 [Example 10, N-methyl-6-phenyl-7-(4-{[4-(5-pyridin-2-yl-1,2,4-triazol-3-yl)piperidin-1-yl]methyl}phenyl)imidazo[1,2-a]pyrimidin-5-amine] | < 1000 nM
Brc1cnc2nc(-c3ccc(CN4CCC(c5n[nH]c(-c6ccccn6)n5)CC4)cc3)c(-c3ccccc3)cn12 [Example 11, 3-bromo-6-phenyl-7-(4-{[4-(5-pyridin-2-yl-1,2,4-triazol-3-yl)piperidin-1-yl]methyl}phenyl)imidazo[1,2-a]pyrimidine] | < 1000 nM
C#Cc1cnc2nc(-c3ccc(CN4CCC(c5n[nH]c(-c6ccccn6)n5)CC4)cc3)c(-c3ccccc3)cn12 [Example 13, 3-ethynyl-6-phenyl-7-(4-{[4-(5-pyridin-2-yl-1,2,4-triazol-3-yl)piperidin-1-yl]methyl}phenyl)imidazo[1,2-a]pyrimidine] | 1000 to 10000 nM
C=Cc1cnc2nc(-c3ccc(CN4CCC(c5n[nH]c(-c6ccccn6)n5)CC4)cc3)c(-c3ccccc3)cn12 [Example 15, 6-phenyl-7-(4-{[4-(5-pyridin-2-yl-1,2,4-triazol-3-yl)piperidin-1-yl]methyl}phenyl)-3-vinylimidazo[1,2-a]pyrimidine] | 1000 to 10000 nM
c1ccc(-c2cn3ccnc3nc2-c2ccc(CN3CCC(c4n[nH]c(-c5ncccn5)n4)CC3)cc2)cc1 [Example 18, 6-phenyl-7-(4-{[4-(5-pyrimidin-2-yl-1,2,4-triazol-3-yl)piperidin-1-yl]methyl}phenyl)imidazo[1,2-a]pyrimidine] | 1000 to 10000 nM
c1ccc(-c2cn3nccc3nc2-c2ccc(CN3CCC(c4n[nH]c(-c5ccccn5)n4)CC3)cc2)cc1 [Example 19, 6-phenyl-5-(4-{[4-(5-pyridin-2-yl-1,2,4-triazol-3-yl)piperidin-1-yl]methyl}phenyl)pyrazolo[1,5-a]pyrimidine] | 1000 to 10000 nM
c1ccc(-c2cn3ccnc3nc2-c2ccc(CN3CCC(n4cnc(-c5ccccn5)c4)CC3)cc2)cc1 [Example 20, 6-phenyl-7-(4-{[4-(4-pyridin-2-yl-imidazol-1-yl)piperidin-1-yl]methyl}phenyl)imidazo[1,2-a]pyrimidine] | 1000 to 10000 nM
c1ccc(-c2cn3ccnc3nc2-c2ccc(CN3CCC(c4n[nH]c(-c5cnccn5)n4)CC3)cc2)cc1 [Example 21, 6-phenyl-7-(4-{[4-(5-pyrazin-2-yl-1,2,4-triazol-3-yl)piperidin-1-yl]methyl}phenyl)imidazo[1,2-a]pyrimidine] | 1000 to 10000 nM
CCc1cnc2nc(-c3ccc(CN4CCC(c5n[nH]c(-c6ccccn6)n5)CC4)cc3)c(-c3ccccc3)cn12 [Example 22, 3-ethyl-6-phenyl-7-(4-{[4-(5-pyridin-2-yl-1,2,4-triazol-3-yl)piperidin-1-yl]methyl}phenyl)imidazo[1,2-a]pyrimidine] | 1000 to 10000 nM

More lines, now with the values ahead:

IC50 | Structure (SMILES)
1000 to 10000 nM | c1ccc(-c2cn3ncnc3nc2-c2ccc(CN3CCC(c4n[nH]c(-c5ccccn5)n4)CC3)cc2)cc1 [Example 2, 6-phenyl-5-(4-([4-(5-pyridin-2-yl-1,2,4-triazol-3-yl)piperidin-1-yl]methyl}phenyl)[1,2,4]triazolo[1,5-a]pyrimidine]
1000 to 10000 nM | Cc1nc2nc(-c3ccc(CN4CCC(c5n[nH]c(-c6ccccn6)n5)CC4)cc3)c(-c3ccccc3)cn2n1 [Example 3, 2-methyl-6-phenyl-5-(4-{[4-(5-pyridin-2-yl-1,2,4-triazol-3-yl)piperidin-1-yl]methyl}phenyl)[1,2,4]triazolo[1,5-a]pyrimidine]
1000 to 10000 nM | c1ccc(-c2cn3nc(C4CC4)nc3nc2-c2ccc(CN3CCC(c4n[nH]c(-c5ccccn5)n4)CC3)cc2)cc1 [Example 4, 2-cyclopropyl-6-phenyl-5-(4-{[4-(5-pyridin-2-yl-1,2,4-triazol-3-yl)piperidin-1-yl]methyl}phenyl)[1,2,4]triazolo[1,5-a]pyrimidine]
< 1000 nM | c1ccc(-c2cn3nc(C4CCC4)nc3nc2-c2ccc(CN3CCC(c4n[nH]c(-c5ccccn5)n4)CC3)cc2)cc1 [Example 7, 2-cyclobutyl-6-phenyl-5-(4-{[4-(5-pyridin-2-yl-1,2,4-triazol-3-yl)piperidin-1-yl]methyl}phenyl)[1,2,4]triazolo[1,5-a]pyrimidine]
1000 to 10000 nM | Clc1cnc2nc(-c3ccc(CN4CCC(c5n[nH]c(-c6ccccn6)n5)CC4)cc3)c(-c3ccccc3)cn12 [Example 12, 3-chloro-6-phenyl-7-(4-{[4-(5-pyridin-2-yl-1,2,4-triazol-3-yl)piperidin-1-yl]methyl}phenyl)imidazo[1,2-a]pyrimidine]
1000 to 10000 nM | Cc1cnc2nc(-c3ccc(CN4CCC(c5n[nH]c(-c6ccccn6)n5)CC4)cc3)c(-c3ccccc3)cn12 [Example 14, 3-methyl-6-phenyl-7-(4-{[4-(5-pyridin-2-yl-1,2,4-triazol-3-yl)piperidin-1-yl]methyl}phenyl)imidazo[1,2-a]pyrimidine]
1000 to 10000 nM | CCc1cn2cc(-c3ccccc3)c(-c3ccc(CN4CCC(c5n[nH]c(-c6ccccn6)n5)CC4)cc3)nc2n1 [Example 17, 2-ethyl-6-phenyl-7-(4-{[4-(5-pyridin-2-yl-1,2,4-triazol-3-yl)piperidin-1-yl]methyl}phenyl)imidazo[1,2-a]pyrimidine]
